Results as given in US5438073A, “Dermatological and/or cosmetological composition containing retinoids” (Pierre Fabre Cosmetique, priority 1991, dated 1995).
Where two headings read alike, the source gives them in different places. Blank lines part the entries; values can stand above or below the compound they belong to.

What was measured:
[1] = system: cytosol extracts of human keratinocytes; conditions: human epidermal cells; specific inhibitors of alcohol metabolism or excess of ethanol
Experimental: We have measured the conversion of retinol to retinoic acid. We have also measured the enzymatic oxidation-reduction of retinal in human epidermal cell extracts in vitro (HPLC analysis of the products obtained by incubation of cytosol extracts with ^3 H-labeled RAL and ROL).
(§1) The HPLC analyses of the retinoids are carried out by the following technique:
(§2) A 100 μl aliquot of the cytosol fraction of keratinocytes is incubated with 600 μM (^3 H) retinol or (^3 H) retinal for 1 hour.
(§3) 5 μl of internal standard solution containing 4-oxoretinoic acid, all-trans-retinoic acid, 13-cis-retinoic acid, retinol and retinal are subsequently added to the reaction medium.
(§4) The radioactive material is then extracted with 3×1 ml of hexane.
(§5) The organic phase is collected and completely evaporated using a stream of nitrogen gas.
(§6) The residue is subsequently taken up in 50 μl of acetonitrile and analysed on an HPLC column.
(§7) The HPLC system consists of a VARIAN 5000 apparatus equipped with an ODS-Ultrasyl reverse-phase column (10 μm, 25×0.4 cm).
(§8) The unlabeled retinoids are detected by their absorbance measured at 340 nm. 600 μl fractions are also collected using a fraction collector, and their radio-activity is measured with a scintillation counter after adding 4 ml of Pico-fluor.

[2] = system: human epidermal cell extracts
Experimental: (§9) We have also measured the enzymatic oxidation-reduction of retinal in human epidermal cell extracts in vitro (HPLC analysis of the products obtained by incubation of cytosol extracts with ^3 H-labeled RAL and ROL).
as §1, §2, §3, §4, §5, §6, §7
(§10) The isocratic elution system consists of a mixture of solvents composed of 71% acetonitrile, 23% of ammonium acetate buffer (50 mM, pH 7) and 6% tetrahydrofuran, with a flow rate of 2.4 ml/min.
as §8

rosacea = test: application in the case of rosacea; type: in vivo, human; conditions: 0.1% retinal, topical, daily
Experimental: This test was carried out on 10 subjects displaying the clinical signs of rosacea. A topical application containing 0.1% of retinal was used in daily application for 3 months.

[3] = system: extracts of normal human skin and of the psoriasis plaque
Experimental: as §9, §1, §2, §3, §4, §5, §6, §7, §10, §8

normal human skin [4] = system: normal human skin
Excerpt: This test, carried out on 30 healthy volunteers, was intended to evaluate the existance of a biological effect and the tolerance after topical application of retinal.
Three concentrations, 1.0%, 0.1% and 0.05%, were used, in daily covered applications for at least 15 days and up to 3 months in 10 subjects.

psoriasis plaques = conditions: for regression of the lesion score: with occlusion
Experimental: For this reason, the 1% preparation was used and the effects of a daily application were compared with those of the excipient, in 12 patients.
The application was "open" in 6 cases, and with occlusion in six 6. 11 cases were able to be evaluated (5 with occlusion, 6 open). The effect was measured by standard methods (erythema 0-3, squama 0-3, infiltration 0-3), comparing the plaques treated with retinal with the symmetrical plaques treated with the excipients. Photographs were taken at each inspection.

seborrheic dermatitis = test: application in the case of seborrheic dermatitis; type: in vivo, human; conditions: 0.05% retinal, topical, daily; after treatment for one month
Experimental: This test was carried out on 10 subjects displaying the clinical signs of seborrheic dermatitis.
A topical application containing 0.05% of retinal was used in daily application for one month.

normal human skin [5] = conditions: topically applied; cited from earlier work
[6] = system: protein extract of psoriasis plaques / cytosol extracts of normal human skin; type: in vitro ADME
Excerpt: Furthermore, the Applicant has shown that the protein extract of psoriasis plaques was also capable of converting retinol to retinoic acid, but with a lower activity (0.33+0.07 pmol/h/mg) than differentiated keratinocytes.
These differences in the conversion activity may be attributed to the differences in biological activity of the tissues studied or to their different state of differentiation.

Structure (SMILES): Cc1cn[nH]c1 [4-methylpyrazole]
effect on the production of retinoic acid from retinol [1]: not affected

Structure (SMILES): CCN(CC)C(=S)SSC(=S)N(CC)CC [disulfiram]
effect on the production of retinoic acid from retinol [1]: not affected

Structure (SMILES): CCO [ethanol]
effect on the production of retinoic acid from retinol [1]: not affected

oxidation of retinal [2]: 51.6 pmol/h/mg
oxidation of retinal to retinoic acid [3]: 1.35 ± 0.4 pmol/h/mg
skin coloration induced (normal human skin [4]; in vivo): yellowish coloration
Structure (SMILES): CC1=C(/C=C/C(C)=C/C=C/C(C)=C/C=O)C(C)(C)CCC1 [retinal]
subjects left with almost no sign of characteristic erythrosis of rosacea (rosacea; after treatment for 3 months): 70%
cases with a substantial improvement in the rosacea (rosacea; from the first month, 10 subjects): 6 of the 10
biological effect on normal skin (normal human skin [4]; 0.1% and 0.05% preparations, topical, healthy volunteers): better appearance of the skin
cases in which an irritation arose (normal human skin [4]; in vivo): 10%
irritation / dermatitis caused by the retinoids (normal human skin [4]; in vivo): no irritation was noted
tolerability (normal human skin [4]; in vivo): excellent
effect on psoriasis plaques (psoriasis plaques; 0.1% and 0.05% preparations, initial pilot study): only a modest effect
effect on the action of UVA (psoriasis plaques; 0.1% and 0.05% preparations, psoriasis plaques): potentiating effect
results in the open series (psoriasis plaques; 1% preparation, daily, open application, 6 cases): only one very good result was noted, with one good and four modest results
regression of the lesion score (psoriasis plaques; 1% preparation, daily, 3 of the 5 cases, from the first week): more than 50%
regression of the lesion score (psoriasis plaques; 1% preparation, daily, one case (good result)): 30%
regression of the lesion score (psoriasis plaques; 1% preparation, daily, one case (modest result)): 10%
local reaction on the psoriasis plaque (psoriasis plaques; in vivo): inflammation specifically localized on the psoriasis plaque
subjects left with almost no characteristic signs of seborrheic dermatitis (seborrheic dermatitis): 80%

Structure (SMILES): CC1=C(/C=C/C(C)=C/C=C/C(C)=C/C(=O)O)C(C)(C)CCC1 [retinoic acid]
topical concentration at which dermatitis caused by the retinoids is observed (normal human skin [5]): ≥ 0.01%

activity of converting retinol to retinoic acid [6]: 0.33+0.07 pmol/h/mg
conversion of retinol to retinoic acid [6]: no measurable degree of conversion
Structure (SMILES): CC1=C(/C=C/C(C)=C/C=C/C(C)=C/CO)C(C)(C)CCC1 [retinol]
